Test results as given in publication PMC12068934 (Nature chemistry, 2024).

Tests used:
SenA = SenA (Variovorax paradoxus, UniProt A0ACH4EUD1); test: preparative enzymatic synthesis, product NMR; assay type: biochemical; details: DTT 20 mM, pH 8, room temperature, 24 h
OvsA = OvsA (Vreelandella halophila, UniProt A0A9X4Y9G9); test: LC-MS after mBBr derivatization; assay type: biochemical; details: histidine 1 mM, DTT 4 mM, pH 8, room temperature

Compound	preparative enzymatic synthesis, product NMR (SenA; hercynine 5 mM)	LC-MS after mBBr derivatization (OvsA)	preparative enzymatic synthesis, product NMR (SenA; SeGlcNAc 6 mM)
CC(=O)N[C@@H]1[C@@H](O)[C@H](O)[C@@H](CO)O[C@H]1[SeH] [SeGlcNAc, N-acetyl-1-seleno-β-D-glucosamine]	large-scale reaction containing SenA and its substrates hercynine and SeGlcNAc	reaction of the NHISS with SeGlcNAc and histidine resulted in rapid formation of a species	–
C[N+](C)(C)[C@@H](Cc1cnc[nH]1)C(=O)[O-] [hercynine, Nα-trimethylhistidine]	–	–	large-scale reaction containing SenA and its substrates hercynine and SeGlcNAc
